What was measured:
[1] = system: HNO 150; experiment: MTT test (in vitro cytotoxicity); format: cell-based; settings: 72 hours
Experimental: (§1) The MMT test is a metabolic test used for evaluating the inhibition of proliferation of tumoral lines by a compound according to the invention. Several representative tumoral lines of different tumoral types such as breast cancer, colon cancer, otorhinolaryngological tumors, lung cancer, are incubated in a 96-well plate at variable concentrations of a compound according to the invention, for 72 hours and MTT is then added for a period of 1 hour. The MTT is a substrate of mitochondrial enzymes which is degraded in insoluble formazan blue. The crystals are then re-solubilized in isopropanol-HCl 0.1N and the plates are analyzed on an ELISA plate reader. Relative survival is calculated relatively to cells which have not been exposed to the compound according to the invention. The IC50 or inhibiting concentration 50 is the concentration value of the investigated compound according to the invention which induces a 50% reduction of proliferation relatively to the control.

[2] = system: N2A; experiment: MTT test (in vitro cytotoxicity); format: cell-based; settings: Mus musculus, 72 hours
Experimental: as §1

[3] = system: L1210; experiment: MTT test (in vitro cytotoxicity); format: cell-based; settings: Mus musculus, 72 hours
Experimental: as §1

[4] = system: RL; experiment: MTT test (in vitro cytotoxicity); format: cell-based; settings: Homo sapiens, 72 hours
Experimental: as §1

[5] = system: MCF7; experiment: MTT test (in vitro cytotoxicity); format: cell-based; settings: Homo sapiens, 72 hours
Experimental: as §1

[6] = system: CEM; experiment: MTT test (in vitro cytotoxicity); format: cell-based; settings: Homo sapiens, CCRF-CEM, 72 hours
Experimental: as §1

[7] = system: Messa; experiment: MTT test (in vitro cytotoxicity); format: cell-based; settings: Homo sapiens, MES-SA, 72 hours
Experimental: as §1

[8] = system: NIH 3T3; experiment: MTT test (in vitro cytotoxicity); format: cell-based; settings: Mus musculus, NIH3T3, 72 hours
Experimental: as §1

[9] = system: K562; experiment: MTT test (in vitro cytotoxicity); format: cell-based; settings: Homo sapiens, 72 hours
Experimental: as §1

[10] = system: SW48; experiment: MTT test (in vitro cytotoxicity); format: cell-based; settings: Homo sapiens, 72 hours
Experimental: as §1

[11] = system: HCT 116; experiment: MTT test (in vitro cytotoxicity); format: cell-based; settings: Homo sapiens, 72 hours
Experimental: as §1

[12] = system: K562 cells; experiment: Cycle test: blocking in the G2/M phase evaluated by flow cytometry; format: cell-based, human; settings: for G2/M inhibition in %: 24 hours, 10 μM, cells blocked in G2/M phase; for G2/M cycle blocking, dose-response (FIG. 1): concentration of the order of one micromolar
Experimental: THE CYCLE TEST CORRESPONDS TO THE ANALYSIS OF THE BLOCKING IN THE G2/M PHASE OF A LINE OF HUMAN LEUKEMIC CELLS AS EVALUATED BY FLOW CYTOMETRY.
The k562 cells are incubated for 24 hours in the absence or in the presence of compounds according to the invention and/or reference compounds such as vincristine. In a first phase, the compounds are used at a concentration of 10 μM, whereby dose-response type studies may be carried out secondarily. After 24 hours the cells are exposed to propidium iodide, a DNA intercalating agent, and analyzed in flow cytometry. The results are expressed as a percentage of the cells blocked in the G2/M phase of the cell cycle.

COc1cccc(OC)c1/C=C/C(=O)c1c(OC)cccc1OC [Compound A, reference compound]
IC50 [1]: 62 µM | IC50 [2]: 55 µM | IC50 [3]: 34 µM | IC50 [4]: 40 µM | IC50 [5]: 75 µM | IC50 [6]: 6 µM | IC50 [7]: 10 µM | IC50 [8]: 60 µM | IC50 [9]: 80 µM | IC50 [10]: 10 µM | IC50 [11]: 9 µM | G2/M inhibition in % [12]: 78% | G2/M cycle blocking, dose-response (FIG. 1) [12]: no activity

COc1cc(OC)c(/C=C/C(=O)c2c(OC)cccc2OC)c(OC)c1 [Example 1, 2,2′,4,6,6′-pentamethoxychalcone]
IC50 [1]: 1.3 µM | IC50 [2]: 2.2 µM | IC50 [3]: 7 µM | IC50 [4]: 0.8 µM | IC50 [5]: 60 µM | IC50 [6]: 0.65 µM | IC50 [7]: 1 µM | IC50 [8]: 30 µM | IC50 [9]: 50 µM | IC50 [10]: 0.25 µM | IC50 [11]: 0.45 µM | G2/M inhibition in % [12]: 84% | G2/M cycle blocking, dose-response (FIG. 1) [12]: significant G2/M cycle blocking

COc1cc(OC)c(/C=C/C(=O)c2c(OC)cc(OC)cc2OC)c(OC)c1 [Example 2, 2,2′,4,4′,6,6′-hexamethoxychalcone]
melting point: 150 °C | IC50 [1]: 10 µM | IC50 [2]: 4 µM | IC50 [3]: 8.5 µM | IC50 [4]: 0.9 µM | IC50 [5]: 52 µM | IC50 [6]: 1.9 µM | IC50 [7]: 2.2 µM | IC50 [8]: 30 µM | IC50 [9]: 50 µM | IC50 [10]: 0.8 µM | IC50 [11]: 1 µM | G2/M inhibition in % [12]: 86% | G2/M cycle blocking, dose-response (FIG. 1) [12]: significant G2/M cycle blocking

COc1ccc(C(=O)/C=C/c2c(OC)cc(OC)cc2OC)c(OC)c1 [Example 3, 2,2′,4,4′,6-pentamethoxychalcone]
melting point: 162 °C | G2/M inhibition in % [12]: 86%

CCOc1cccc(OCC)c1C(=O)/C=C/c1c(OC)cc(OC)cc1OC [Example 7, 2′,6′-diethoxy-2,4,6-trimethoxychalcone]
melting point: 102 °C

CCOc1cc(OCC)c(/C=C/C(=O)c2c(OC)cccc2OC)c(OCC)c1 [Example 8, 2′,6′-dimethoxy-2,4,6-triethoxychalcone]
melting point: 154 °C

COc1cc(OC)c(/C=C/C(=O)c2c(OC)cc(N)cc2OC)c(OC)c1 [Example 9, 4′-amino-2,2′,4,6,6′-pentamethoxychalcone]
melting point: 188 °C

CCOc1cc(OCC)c(/C=C/C(=O)c2c(OCC)cc(OCC)cc2OCC)c(OCC)c1 [Example 10, 2,2′,4,4′,6,6′-hexaethoxychalcone]
melting point: 160 °C

COc1ccc(/C=C/C(=O)c2c(OC)cccc2OC)c(OC)c1OC [Example 11, 2,2′,3,4,6′-pentamethoxychalcone]
melting point: 129 °C

COc1cc(OC)c(OC)cc1/C=C/C(=O)c1c(OC)cccc1OC [Example 12, 2,2′,4,5,6′-pentamethoxychalcone]
melting point: 143 °C

COc1cc(/C=C/C(=O)c2c(OC)cccc2OC)cc(OC)c1OC [Example 13, 2′,3,4,5,6′-pentamethoxychalcone]
melting point: 136 °C

COc1cccc(OC)c1C(=O)/C=C/c1c(OC)c(F)c(OC)c(F)c1OC [Example 14, 3,5-difluoro-2,2′,4,6,6′-pentamethoxychalcone]
melting point: 108 °C

COc1cccc(OC)c1C(=O)/C=C/c1c(C)cc(C)cc1C [Example 15, 2′,6′-dimethoxy-2,4,6-trimethylchalcone]
melting point: 126 °C

COc1ccc(/C=C/C(=O)c2c(OC)cc(OC)cc2OC)c(OC)c1 [Example 16, 2,2′,4,4′,6′-pentamethoxychalcone]
melting point: 105 °C

COc1cc(OC)c(C(=O)/C=C/c2c(OC)cccc2OC)c(OC)c1 [Example 18, 2,2′,4′,6,6′-pentamethoxychalcone]
melting point: 164 °C

COc1ccc(C(=O)/C=C/c2cc(OC)c(OC)cc2OC)c(O)c1 [Example 19, 2′-hydroxy-2,4,4′,5-tetramethoxychalcone]
melting point: 170 °C

COc1ccc(C(=O)/C=C/c2c(OC)cc(OC)cc2OC)c(O)c1 [Example 20, 2′-hydroxy-2,4,4′,6-tetramethoxychalcone]
melting point: 167 °C

COc1ccc(C(=O)/C=C/c2cc(OC)c(OC)c(OC)c2)c(O)c1 [Example 21, 2′-hydroxy-3,4,4′,5-tetramethoxychalcone]
melting point: 110 °C

COc1ccc(C(=O)/C=C/c2ccc(OC)c(OC)c2OC)c(O)c1 [Example 22, 2′-hydroxy-2,3,4,4′-tetramethoxychalcone]
melting point: 152 °C

Reference: US20090182058A1, “Novel Chalcone Derivatives With Antimitotic Activity” (priority 2006, published 2009)
